Source: patent US9884839B2, “Inhibitors of 17Beta-hydroxysteroid dehydrogenases type 1 and type 2” (ElexoPharm GmbH, priority 2014, dated 2018)
Like-named read-outs stand apart in the source and are kept apart here.

Experiments:
Assay type in all cases: biochemical
mouse 17β-HSD2 = target: T1, mouse 17β-HSD2 (Mus musculus, UniProt P51658); assay: Inhibition of mouse 17β-HSD2 (liver microsomal fraction)
T1 construct: The pellet fractions containing the microsomal 17β-HSD2 were used for the determination of E1 formation; from tissue; host or cells: mouse liver, microsomal fraction
T1 sequence (P51658 1-381): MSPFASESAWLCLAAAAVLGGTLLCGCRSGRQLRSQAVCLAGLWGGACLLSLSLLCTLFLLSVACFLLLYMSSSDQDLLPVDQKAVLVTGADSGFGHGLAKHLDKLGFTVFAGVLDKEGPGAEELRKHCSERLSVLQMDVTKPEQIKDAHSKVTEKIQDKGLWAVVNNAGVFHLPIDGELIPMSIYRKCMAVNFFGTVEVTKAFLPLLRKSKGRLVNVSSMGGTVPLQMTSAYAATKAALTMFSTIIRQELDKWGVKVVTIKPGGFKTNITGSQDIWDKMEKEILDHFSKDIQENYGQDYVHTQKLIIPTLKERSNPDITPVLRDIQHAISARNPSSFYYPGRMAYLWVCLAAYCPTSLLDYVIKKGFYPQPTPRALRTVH
Protocol: Microsomal 17β-HSD2 fractions were obtained from mouse or rat liver. Fresh liver tissues were processed as described for the human placental 17β-HSD2 preparation. The pellet fractions containing the microsomal 17β-HSD2 were used for the determination of E1 formation.
(§1) The conversion rate was calculated after analysis of the resulting chromatograms according to the following equation: % conversion=[% E1/(% E1+% E2)]×100

mouse 17β-HSD1 = target: T2, mouse 17β-HSD1 (Mus musculus, UniProt P51656); assay: Inhibition of mouse 17β-HSD1 (recombinant, HEK293 lysate)
T2 construct: made in house; host or cells: HEK293 cells, transient transfection; 1,000 g supernatant of the cell lysate
T2 sequence (P51656 1-344): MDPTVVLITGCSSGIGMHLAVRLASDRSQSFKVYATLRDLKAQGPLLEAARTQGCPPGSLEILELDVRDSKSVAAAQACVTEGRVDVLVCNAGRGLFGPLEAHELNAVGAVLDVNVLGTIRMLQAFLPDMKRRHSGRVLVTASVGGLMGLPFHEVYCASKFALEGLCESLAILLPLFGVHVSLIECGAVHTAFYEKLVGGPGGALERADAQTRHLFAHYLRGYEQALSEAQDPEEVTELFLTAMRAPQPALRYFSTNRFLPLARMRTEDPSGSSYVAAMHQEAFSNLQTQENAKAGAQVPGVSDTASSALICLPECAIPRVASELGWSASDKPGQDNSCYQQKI

human 17β-HSD2 = target: T3, human 17β-HSD2 (Homo sapiens, UniProt P37059); assay: Inhibition of human 17β-HSD2 (conversion of [3H]-E2 to E1); settings: for IC50: read-out: IC50 [nM] h17β-HSD2; for inhibition at 1 µM: read-out: % inhibition h17β-HSD2 @ 1 μM
T3 construct: 17β-HSD2 was obtained from the microsomal fraction; from tissue; host or cells: human placenta, microsomal fraction
T3 sequence (P37059 1-387): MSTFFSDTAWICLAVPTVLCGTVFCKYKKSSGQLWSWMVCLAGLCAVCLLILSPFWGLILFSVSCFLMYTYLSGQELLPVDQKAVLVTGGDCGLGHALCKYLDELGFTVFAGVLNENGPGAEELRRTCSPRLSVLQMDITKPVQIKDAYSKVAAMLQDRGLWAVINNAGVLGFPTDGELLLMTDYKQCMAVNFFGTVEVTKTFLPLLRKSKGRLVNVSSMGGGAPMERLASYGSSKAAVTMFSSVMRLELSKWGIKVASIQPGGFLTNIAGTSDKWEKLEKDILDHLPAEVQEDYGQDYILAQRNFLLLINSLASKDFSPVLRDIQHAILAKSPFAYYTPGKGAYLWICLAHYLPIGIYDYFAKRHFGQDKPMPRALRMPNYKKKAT
Protocol: Fresh human placenta was homogenized, and cytosolic fraction and microsomes were separated by differential centrifugation at 1,000 g, 10,000 g and 150,000 g.
as §1

human 17β-HSD1 = target: T4, human 17β-HSD1 (Homo sapiens, UniProt P14061); assay: Inhibition of human 17β-HSD1 (conversion of [3H]-E1 to E2, HPLC radioflow detection); settings: for IC50: read-out: IC50 [nM] h17β-HSD1; for inhibition at 1 µM: read-out: % inhibition h17β-HSD1 @ 1 μM
T4 construct: For the partial purification of 17β-HSD1, the cytosolic fraction was precipitated with ammonium sulfate; from tissue; host or cells: human placenta, cytosolic fraction, ammonium sulfate precipitate
T4 sequence (P14061 1-328): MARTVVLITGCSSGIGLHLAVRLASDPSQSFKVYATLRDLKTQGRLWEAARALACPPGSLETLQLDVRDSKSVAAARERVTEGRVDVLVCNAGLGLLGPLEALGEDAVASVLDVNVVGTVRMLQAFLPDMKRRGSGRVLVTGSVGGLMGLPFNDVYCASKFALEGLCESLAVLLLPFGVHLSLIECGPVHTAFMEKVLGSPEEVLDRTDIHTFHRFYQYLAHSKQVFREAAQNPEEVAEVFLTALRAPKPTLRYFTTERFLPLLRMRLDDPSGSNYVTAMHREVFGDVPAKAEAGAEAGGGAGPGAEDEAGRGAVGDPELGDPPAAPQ

[1] = read-out: % inhibition m17β-HSD2 @ 1 μM
[2] = read-out: % inhibition m17β-HSD1 @ 1 μM
[3] = human placental cytosolic enzyme, E1 500 nM, NADH, Tables 1, 4-11
[4] = read-out: Inhibition @ 1 μM m17β-HSD2
[5] = read-out: Inhibition @ 1 μM m17β-HSD1

Row | Structure (SMILES) | inhibition at 1 µM (mouse 17β-HSD2; [1]) | inhibition at 1 µM (mouse 17β-HSD1; [2]) | IC50 (human 17β-HSD2) | IC50 (human 17β-HSD1; [3]) | inhibition at 1 µM (mouse 17β-HSD2; [4]) | inhibition at 1 µM (mouse 17β-HSD1; [5]) | inhibition at 1 µM (human 17β-HSD2) | inhibition at 1 µM (human 17β-HSD1) | IC50 (human 17β-HSD1)
1 | Cc1c(O)cccc1C(=O)c1ccc(-c2ccc(F)cc2F)s1 [B, reference compound] | 18% | 5% | 300 nM | 3430 nM | – | – | – | – | –
2 | O=C(c1ccc(Br)s1)c1cc(F)c(F)c(O)c1F [Compound 1g, (5-Bromo-thiophen-2-yl)-(2,4,5-trifluoro-3-hydroxy-phenyl)-methanone] | 44% | 11% | 27 nM | 130 nM | 44% | 11% | – | – | –
3 | O=C(c1ccc(-c2cccnc2)s1)c1c(F)ccc(O)c1F [Compound 9, (2,6-Difluoro-3-hydroxy-phenyl)-(5-pyridin-3-yl-thiophen-2-yl)-methanone] | – | – | – | – | 23% | 14% | 64% | 57% | –
4 | COc1ccc(-c2sc(C(=O)c3c(F)ccc(O)c3F)cc2C)cc1Cl [Compound 13, [5-(3-Chloro-4-methoxy-phenyl)-4-methyl-thiophen-2-yl]-(2,6-difluoro-3-hydroxy-phenyl)-methanone] | – | – | 52 nM | 5.5 nM | 65% | 25% | – | – | –
5 | O=C(c1ccc(-c2cc(F)c(OC(F)F)c(F)c2)s1)c1c(F)ccc(O)c1F [Compound 17, (2,6-Difluoro-3-hydroxy-phenyl)-[5-(4-difluoromethoxy-3,5-difluoro-phenyl)-thiophen-2-yl]-methanone] | – | – | 36 nM | 7 nM | 74% | 47% | – | – | –
6 | O=C(c1ccc(-c2cccc(Cl)c2O)s1)c1c(F)ccc(O)c1F [Compound 22, [5-(3-Chloro-2-hydroxy-phenyl)-thiophen-2-yl]-(2,6-difluoro-3-hydroxy-phenyl)-methanone] | – | – | 29 nM | – | 82% | 46% | – | – | 27 nM
7 | COc1c(Cl)cc(-c2ccc(C(=O)c3c(F)ccc(O)c3F)s2)cc1CN1CCN(C(C)=O)CC1 [Compound 28, 1-(4-{3-Chloro-5-[5-(2,6-difluoro-3-hydroxy-benzoyl)-thiophen-2-yl]-2-methoxy-benzyl}-piperazin-1-yl)-ethanone] | – | – | 21 nM | – | 45% | 37% | – | – | 1.4 nM
8 | COc1c(Cl)cc(-c2ccc(C(=O)c3c(F)ccc(OC(C)=O)c3F)s2)cc1Cn1ccnn1 [Compound 31a, Acetic acid 3-[5-(3-chloro-4-methoxy-5-[1,2,3]triazol-1-ylmethyl-phenyl)-thiophene-2-carbonyl]-2,4-difluoro-phenylester] | – | – | – | – | – | 20% | 32% | 28% | –
9 | O=C(c1ccc(-c2cncc(F)c2)s1)c1cc(F)c(F)c(O)c1F [Compound 39, [5-(5-Fluoro-pyridin-3-yl)-thiophen-2-yl]-(2,4,5-trifluoro-3-hydroxy-phenyl)-methanone] | – | – | 18 nM | 59 nM | 24% | 9% | – | – | –
10 | O=C(c1ccc(-c2ccc(O)c(F)c2)s1)c1cc(F)c(F)c(O)c1F [Compound 42, (5-(3-Fluoro-4-hydroxyphenyl)thiophen-2-yl)(2,4,5-trifluoro-3-hydroxyphenyl)methanone] | – | – | 3 nM | 2.5 nM | 84% | 46% | – | – | –
